According to PubChem BioAssay (NCI):
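How tested: cells in 96-well plates exposed to compound for 48 hours at five concentrations. At the GI50, growth is halved. TGI is the concentration that stops growth completely.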

Tests used:
Test in all cases: growth of human tumour cells (NCI), 48 h
[1] = tested on: 786-0 renal
[2] = tested on: A498 renal
[3] = tested on: A549 NSCLC
[4] = tested on: ACHN renal
[5] = tested on: BT-549 breast
[6] = tested on: CAKI-1 renal
[7] = tested on: CCRF-CEM leukemia
[8] = tested on: COLO 205 colon
[9] = tested on: DU-145 prostate
[10] = tested on: EKVX NSCLC
[11] = tested on: HCC-2998 colon
[12] = tested on: HCT-116 colon
[13] = tested on: HCT-15 colon
[14] = tested on: HL-60(TB) leukemia
[15] = tested on: HOP-62 NSCLC
[16] = tested on: HOP-92 NSCLC
[17] = tested on: HS 578T breast
[18] = tested on: HT29 colon
[19] = tested on: IGROV1 ovarian
[20] = tested on: K-562 leukemia
[21] = tested on: KM12 colon
[22] = tested on: LOX IMVI melanoma
[23] = tested on: M14 melanoma
[24] = tested on: MALME-3M melanoma
[25] = tested on: MCF7 breast
[26] = tested on: MDA-MB-231 breast
[27] = tested on: MDA-MB-435
[28] = tested on: MOLT-4 leukemia
[29] = tested on: NCI-H226 lung
[30] = tested on: NCI-H23 lung
[31] = tested on: NCI-H460 lung
[32] = tested on: NCI-H522 lung
[33] = tested on: NCI/ADR-RES ovarian
[34] = tested on: OVCAR-3 ovarian
[35] = tested on: OVCAR-4 ovarian
[36] = tested on: OVCAR-5 ovarian
[37] = tested on: OVCAR-8 ovarian
[38] = tested on: PC-3 prostate
[39] = tested on: RPMI-8226 leukemia
[40] = tested on: RXF 393 renal
[41] = tested on: SF-268 CNS
[42] = tested on: SF-295 CNS
[43] = tested on: SF-539 CNS
[44] = tested on: SK-MEL-2 melanoma
[45] = tested on: SK-MEL-28 melanoma
[46] = tested on: SK-MEL-5 melanoma
[47] = tested on: SK-OV-3 ovarian
[48] = tested on: SN12C renal
[49] = tested on: SNB-19 CNS
[50] = tested on: SNB-75 CNS
[51] = tested on: SR leukemia
[52] = tested on: SW-620 colon
[53] = tested on: T-47D breast
[54] = tested on: TK-10 renal
[55] = tested on: U251 CNS
[56] = tested on: UACC-257 melanoma
[57] = tested on: UACC-62 melanoma
[58] = tested on: UO-31 renal

Cc1ccc(NC(=O)c2ccc(CN3CCN(C)CC3)cc2)cc1Nc1nccc(-c2cccnc2)n1
GI50 [1]: 16.1 µM
TGI [1]: 33.6 µM
GI50 [2]: 20.6 µM
TGI [2]: 39.2 µM
GI50 [3]: 25.9 µM
TGI [3]: 89.3 µM
GI50 [4]: 24.1 µM
TGI [4]: 72.9 µM
GI50 [5]: 16.6 µM
TGI [5]: 34.9 µM
GI50 [6]: 30.3 µM
TGI [6]: 67 µM
GI50 [7]: 18.4 µM
TGI [7]: 71.1 µM
GI50 [8]: 16.7 µM
TGI [8]: 40.5 µM
GI50 [9]: 19.7 µM
TGI [9]: 55.6 µM
GI50 [10]: 26.6 µM
TGI [10]: 92.1 µM
GI50 [11]: 21.3 µM
TGI [11]: 38.5 µM
GI50 [12]: 13.2 µM
TGI [12]: 42.6 µM
GI50 [13]: 16.2 µM
TGI [13]: 80.5 µM
GI50 [14]: 16 µM
TGI [14]: 35.9 µM
GI50 [15]: 21.9 µM
TGI [15]: 47 µM
GI50 [16]: 12.6 µM
TGI [16]: 37.3 µM
GI50 [17]: 15 µM
TGI [17]: 43.1 µM
GI50 [18]: 4.88 µM
TGI [18]: 24.1 µM
GI50 [19]: 20.5 µM
TGI [19]: 45.7 µM
GI50 [20]: 0.0414 µM
TGI [20]: 3.72 µM
GI50 [21]: 18.8 µM
TGI [21]: 41.3 µM
GI50 [22]: 13.1 µM
TGI [22]: 34.8 µM
GI50 [23]: 19.1 µM
TGI [23]: 35.7 µM
GI50 [24]: 16.5 µM
TGI [24]: 32 µM
GI50 [25]: 17.8 µM
TGI [25]: 44.8 µM
GI50 [26]: 18.3 µM
TGI [26]: 46.2 µM
GI50 [27]: 17.4 µM
TGI [27]: 36 µM
GI50 [28]: 5.11 µM
TGI [28]: 41.4 µM
GI50 [29]: 19.6 µM
TGI [29]: 49.9 µM
GI50 [30]: 15 µM
TGI [30]: 38.2 µM
GI50 [31]: 16.8 µM
TGI [31]: 37.1 µM
GI50 [32]: 16.1 µM
TGI [32]: 32.7 µM
GI50 [33]: 23.8 µM
TGI [33]: 68.3 µM
GI50 [34]: 31.1 µM
TGI [34]: 72.9 µM
GI50 [35]: 18.6 µM
TGI [35]: 65.3 µM
GI50 [36]: 2.08 µM
TGI [36]: 39.5 µM
GI50 [37]: 27 µM
TGI [37]: > 89.9 µM
GI50 [38]: 21.5 µM
TGI [38]: 71.6 µM
GI50 [39]: 7.56 µM
TGI [39]: 28.1 µM
GI50 [40]: 14.2 µM
TGI [40]: 33.3 µM
GI50 [41]: 25.6 µM
TGI [41]: 71 µM
GI50 [42]: 17.8 µM
TGI [42]: 38.3 µM
GI50 [43]: 8.06 µM
TGI [43]: 22.4 µM
GI50 [44]: 22.1 µM
TGI [44]: 54.8 µM
GI50 [45]: 15.1 µM
TGI [45]: 29.6 µM
GI50 [46]: 12.3 µM
TGI [46]: 24.9 µM
GI50 [47]: 28.7 µM
TGI [47]: 80.9 µM
GI50 [48]: 30.7 µM
TGI [48]: > 100 µM
GI50 [49]: 36.1 µM
TGI [49]: > 100 µM
GI50 [50]: 18.7 µM
TGI [50]: 34.2 µM
GI50 [51]: 4.72 µM
TGI [51]: > 51.3 µM
GI50 [52]: 24.3 µM
TGI [52]: 54.7 µM
GI50 [53]: 16.9 µM
TGI [53]: 49.6 µM
GI50 [54]: 28.1 µM
TGI [54]: 70.6 µM
GI50 [55]: 17.7 µM
TGI [55]: 45.1 µM
GI50 [56]: 17.1 µM
TGI [56]: 38.5 µM
GI50 [57]: 19.2 µM
TGI [57]: 40.5 µM
GI50 [58]: 22.3 µM
TGI [58]: 53.8 µM
